Results published in the NIST ThermoML archive (doi:10.1021/je100522z).
Values joined by “and” are separate entries in the source; they are usually repeats but may differ in a detail not shown here. Equal entries are not always repeated.

Assays:
[1] = excess molar enthalpy (molar enthalpy of mixing); xn = mol fraction of the nth substance listed; conditions: 101.3 kPa, Liquid, Calvet calorimetry
[2] = 101.33 kPa, Liquid
[3] = molar heat capacity at constant pressure; conditions: 101.33 kPa, Liquid, Small sample (50 mg) DSC

CCCCCCn1cc[n+](C)c1.O=S(=O)([O-])C(F)(F)F [1-hexyl-3-methylimidazolium trifluoromethanesulfonate] + O
[1]
Conditions	excess molar enthalpy
313.12 K, x2 = 0.3964	0.325 kcal/mol
313.12 K, x2 = 0.3978	0.325 kcal/mol
313.12 K, x2 = 0.6294	0.387 kcal/mol
313.12 K, x2 = 0.6334	0.387 kcal/mol
313.12 K, x2 = 0.8633	0.174 kcal/mol and 0.172 kcal/mol
333.12 K, x2 = 0.3946	0.354 kcal/mol
333.12 K, x2 = 0.3993	0.359 kcal/mol
333.12 K, x2 = 0.6304	0.449 kcal/mol
333.12 K, x2 = 0.8633	0.239 kcal/mol
348.13 K, x2 = 0.3956	0.378 kcal/mol
348.13 K, x2 = 0.3977	0.382 kcal/mol
348.13 K, x2 = 0.6302	0.504 kcal/mol
348.13 K, x2 = 0.635	0.504 kcal/mol
348.13 K, x2 = 0.8633	0.289 kcal/mol

CCn1cc[n+](C)c1.COS(=O)(=O)[O-] [1-ethyl-3-methylimidazolium methylsulfate]
Conditions	mass density, [2] [kg/m3]	molar heat capacity at constant pressure, [3] [J/K/mol]
283.15 K	–	324
293.15 K	1291.15	330
298.15 K	1287.75	–
303.15 K	1284.37	332
313.15 K	1277.61	337
323.15 K	1270.87	343
333.15 K	1264.22	347
343.15 K	1257.72	354

CCn1cc[n+](C)c1.N#C[S-] [1-ethyl-3-methylimidazolium thiocyanate] + O
[1]
Conditions	excess molar enthalpy [kcal/mol]
313.14 K, x2 = 0.1503	-0.059
313.14 K, x2 = 0.2483	-0.0865
313.14 K, x2 = 0.2501	-0.0868
313.14 K, x2 = 0.498	-0.101
313.14 K, x2 = 0.4996	-0.101
313.14 K, x2 = 0.7488	-0.0261
313.14 K, x2 = 0.7493	-0.0258
313.14 K, x2 = 0.8994	0.0433
313.14 K, x2 = 0.8996	0.043
333.14 K, x2 = 0.1477	-0.0614
333.14 K, x2 = 0.1479	-0.0609
333.14 K, x2 = 0.25	-0.0887
333.14 K, x2 = 0.2506	-0.0889
333.14 K, x2 = 0.5014	-0.0939
333.14 K, x2 = 0.5016	-0.0942
333.14 K, x2 = 0.6521	-0.0483
333.14 K, x2 = 0.6524	-0.0483
333.14 K, x2 = 0.8965	0.0619
333.14 K, x2 = 0.898	0.0621
348.13 K, x2 = 0.1467	-0.0629
348.13 K, x2 = 0.1516	-0.0652
348.13 K, x2 = 0.2472	-0.0884
348.13 K, x2 = 0.251	-0.0877
348.13 K, x2 = 0.499	-0.087
348.13 K, x2 = 0.4992	-0.0868
348.13 K, x2 = 0.6015	-0.0552
348.13 K, x2 = 0.6029	-0.0545
348.13 K, x2 = 0.8992	0.082
348.13 K, x2 = 0.8993	0.082

C[n+]1ccn(CCO)c1.O=C([O-])C(F)(F)F
Conditions	mass density, [2] [kg/m3]	molar heat capacity at constant pressure, [3] [J/K/mol]
283.15 K	–	362
293.15 K	1370.39	367
298.15 K	1366.36	–
303.15 K	1362.51	371
313.15 K	1354.8	376
323.15 K	1346.98	381
333.15 K	1339.46	387
343.15 K	1331.98	394

CCn1cc[n+](C)c1.O=S(=O)([O-])O [1-ethyl-3-methylimidazolium hydrogen sulfate]
Conditions	mass density, [2] [kg/m3]	molar heat capacity at constant pressure, [3] [J/K/mol]
283.15 K	–	290
293.15 K	1369.28	294
298.15 K	1365.79	–
303.15 K	1362.63	297
313.15 K	1356.27	302
323.15 K	1350.14	306
333.15 K	1344.38	313
343.15 K	1338.46	324

CCn1cc[n+](C)c1.CS(=O)(=O)[O-] [1-ethyl-3-methylimidazolium methanesulfonate]
Conditions	mass density, [2] [kg/m3]	molar heat capacity at constant pressure, [3] [J/K/mol]
283.15 K	–	327
293.15 K	1247.31	327
298.15 K	1243.83	–
303.15 K	1240.45	330
313.15 K	1233.48	334
323.15 K	1227.03	339
333.15 K	1220.33	344
343.15 K	1213.79	350

CCn1cc[n+](C)c1.N#C[S-] [1-ethyl-3-methylimidazolium thiocyanate]
Conditions	mass density, [2] [kg/m3]	molar heat capacity at constant pressure, [3] [J/K/mol]
283.15 K	–	285
293.15 K	1119.02	287
298.15 K	1115.96	–
303.15 K	1112.91	288
313.15 K	1106.85	290
323.15 K	1100.85	293
333.15 K	1094.91	296
343.15 K	1089.06	300

CCOP(=O)([O-])OCC.CCn1cc[n+](C)c1 [1-ethyl-3-methylimidazolium diethyl phosphate] + O
[1]
Conditions	excess molar enthalpy [kcal/mol]
313.13 K, x2 = 0.2497	-0.813
313.13 K, x2 = 0.2506	-0.815
313.13 K, x2 = 0.5025	-1.34
313.13 K, x2 = 0.5036	-1.34
313.13 K, x2 = 0.7514	-1.25
313.13 K, x2 = 0.7538	-1.25
333.13 K, x2 = 0.2456	-0.786
333.13 K, x2 = 0.2473	-0.786
333.13 K, x2 = 0.4977	-1.31
333.13 K, x2 = 0.508	-1.32
333.13 K, x2 = 0.7491	-1.23
333.13 K, x2 = 0.7512	-1.22
348.12 K, x2 = 0.2452	-0.779
348.12 K, x2 = 0.2477	-0.796
348.12 K, x2 = 0.4992	-1.29
348.12 K, x2 = 0.4996	-1.29
348.12 K, x2 = 0.7481	-1.19
348.12 K, x2 = 0.7485	-1.18

CCCC[P+](CC)(CCCC)CCCC.CCOP(=O)([O-])OCC [tributylethylphosphonium diethylphosphate]
Conditions	mass density, [2] [kg/m3]	molar heat capacity at constant pressure, [3] [J/K/mol]
283.15 K	–	683
293.15 K	1010.74	706
298.15 K	1007.43	–
303.15 K	1004.1	716
313.15 K	997.42	728
323.15 K	990.87	739
333.15 K	984.33	753
343.15 K	977.79	768

CCOP(=O)([O-])OCC.CCn1cc[n+](C)c1 [1-ethyl-3-methylimidazolium diethyl phosphate]
Conditions	mass density, [2] [kg/m3]	molar heat capacity at constant pressure, [3] [J/K/mol]
283.15 K	–	517
293.15 K	1148.92	528
298.15 K	1145.47	–
303.15 K	1142.03	533
313.15 K	1135.19	540
323.15 K	1128.57	545
333.15 K	1121.94	547
343.15 K	1115.36	557

CCCCCCn1cc[n+](C)c1.O=S(=O)([O-])C(F)(F)F [1-hexyl-3-methylimidazolium trifluoromethanesulfonate]
[3]
Conditions	molar heat capacity at constant pressure [J/K/mol]
283.15 K	484
293.15 K	493
303.15 K	500
313.15 K	506
323.15 K	513
333.15 K	516
343.15 K	522

CCCC[P+](CC)(CCCC)CCCC.CCOP(=O)([O-])OCC [tributylethylphosphonium diethylphosphate] + O
[1]
Conditions	excess molar enthalpy [kcal/mol]
313.11 K, x2 = 0.2619	-0.315
313.11 K, x2 = 0.2622	-0.318
313.11 K, x2 = 0.5134	-0.619
313.11 K, x2 = 0.5174	-0.624
313.11 K, x2 = 0.762	-0.696
313.11 K, x2 = 0.7628	-0.696
333.11 K, x2 = 0.2606	-0.284
333.11 K, x2 = 0.2633	-0.289
333.11 K, x2 = 0.5116	-0.552
333.11 K, x2 = 0.5118	-0.554
333.11 K, x2 = 0.7594	-0.619
333.11 K, x2 = 0.7601	-0.621
348.11 K, x2 = 0.2623	-0.27
348.11 K, x2 = 0.2642	-0.272
348.11 K, x2 = 0.5185	-0.511
348.11 K, x2 = 0.5213	-0.514
348.11 K, x2 = 0.7613	-0.554
348.11 K, x2 = 0.7635	-0.554
